Results on three compounds are retold here after US6766183B2, “Long wave fluorophore sensor compounds and other fluorescent sensor compounds in polymers” (Medtronic MiniMed, Inc., priority 1995, dated 2004).

Series [1] in a line: Glucose transduction of Nile Blue boronate: fluorescence in DMSO/PBS, ex 621 nm, em 671 nm. The settings on record: for fluorescent intensity increase at 671 nm: ex 621 nm, relative to blank, listed as 1; for fluorescent intensity increase at 671 nm / increase in fluorescent intensity at 671 nm: DMSO/PBS; for increase in fluorescent intensity at 671 nm: separate batch. Here is the method:
A typical embodiment of the invention uses Nile Blue as an illustrative oxazine-based fluorophore.
Results: After work-up, the reaction was concentrated to dryness. A sample of the blue residue (˜1 mg), dissolved in DMSO (1 ml), was aliquoted (100 □ L) and dissolved in PBS (20 mL). […] A control fluorescence experiment was performed containing Nile Blue A using the same conditions as mentioned above.
(§1) To a round bottom flask, equipped with a reflux condenser under N2, containing Nile Blue perchlorate salt (42 mg, 0.1 mmol), boronate (28 mg, 0.1 mmoles) and K2CO3 (˜1 g) was added CH3CN (25 mL). The reaction was heated at reflux for 24 hours after which the solvent evaporated and the reaction went to dryness. The sample of the reaction mixture (1 mg, 2.21 mole) was dissolved in DMSO (1 mL). An aliquot (100 μL) was dissolved in PBS (20 mL). A sample of this solution (3 mL) was placed into the fluorolog and fluorescent measurements were made (ex=621 nm, slits at 10 and 20) at various glucose concentrations (0 mg/dL, 150 mg/dL, 300 mg/dL and 450 mg/dL) with a sampling interval of 45 min.
To a round bottom flask, equipped with a reflux condenser under N2, containing Nile Blue perchlorate salt (42 mg, 0.1 mmol), boronate (22 mg, 0.1 mmoles) and K2CO3 (˜1 g) was added CH3CN (25 mL). […] The sample of the reaction mixture (1 mg, […]) was dissolved in DMSO (1 mL). An aliquot (100 μL) was dissolved in PBS (20 mL). A sample of this solution (3 mL) was placed into the fluorolog and fluorescent measurements were made (ex=621 nm, slits at 10 and 20) at various glucose concentrations (0 mg/dL, 150 mg/dL, 300 mg/dL and 450 mg/dL) with a sampling interval of 45 min.
as §1, with “[…])” for “mole)”

The nature of series [2]: Fluorescence excitation and emission wavelengths. The format is physicochemical. The settings on record: aqueous PBS; for maximum emission wavelength: irradiated at 621 nm. The source says:
An exemplary oxazine-based biosensor molecule of the present invention utilizes Nile blue as the fluorophore as shown in FIG. 2. The Nile blue-based biosensor molecule has an excitation wavelength of about 625 nm and a maximum emission wavelength of about 675 nm (see, e.g. FIGS. 8). Similar oxazine-based fluorophores suitable for use in embodiments of the present invention may include one or more functional groups selected from the following: aliphatic, aromatic, haloalkane, alcohol, ether, amine, cyano, nitro group, aldehyde, ketone, ester, carboxylic acid, sulfonic acid and phosphoric acid functional groups.
As illustrated above, the oxazine-based molecules in accordance with embodiments of the invention solve the problem of obtaining optimal optical transmission of fluorescence via implanted fluorescent reporter systems of in-vivo polyhydroxylate analyte concentrations. […] Particular embodiments of the biosensor molecules of the invention have at least one maximum wavelength in their emission spectra that is greater than about 600 nm and have at least one wavelength in their emission spectra that is greater than about 650 nm. An exemplary oxazine-based biosensor molecule in accordance with embodiments of the invention utilizes Nile Blue as a fluorophore. This Nile Blue biosensor molecule generally has an excitation wavelength of about 625 nm and an emission wavelength of about 675 nm in an aqueous Phosphate Buffered Saline (PBS) solution. Particular embodiments of the invention, however, may emit in the near infrared (IR) region of the spectrum.
Results: After work-up, the reaction was concentrated to dryness. A sample of the blue residue (˜1 mg), dissolved in DMSO (1 ml), was aliquoted (100 □ L) and dissolved in PBS (20 mL). A sample PBS solution (3 mL) contained in a cuvette and irradiated at 621 nm, gave rise to the appearance of a maximum emission peak at 671 nm. Successive additions of glucose (150 mg/dL), added to the cuvette, led to an increase in […] intensity, at 671 nm, after each addition. The first addition of glucose gave rise to a 7.5% increase in fluorescence at 671 nm. After the second addition of glucose, the intensity rose 14.3% relative to the blank. Addition of the third aliquot of glucose gave an 18.8% rise in fluorescent intensity relative to the blank. […] A control fluorescence experiment was performed containing Nile Blue A using the same conditions as mentioned above.

A short description of a further series: Water solubility. The format is physicochemical. The text has this: Exemplary long wavelength glucose-sensing molecule containing an oxazine (Nile Blue) coupled with a phenyl boronate suitable for detection of glucose, following polymer incorporation, in vivo is shown in FIGS. 2 and 3. FIG. 2 provides a comparison of fluorescent excitations of representative fluorophores including the oxazine Nile Blue. The excitation and emission profile of anthracene based compounds are well below that of Nile Blue's fluorescent profile (see, e.g., FIG. 3). […] It is feasible to substitute other oxazines of similar structure for Nile Blue.

Series [3] is described as follows: Glucose transduction in PBS, relative fluorescent intensity (FIG. 18 format). Here is the method: FIG. 18 is a graph showing Nile Blue boronate's transduction of glucose in PBS.
The figures provided herein further illustrate various embodiments of the invention and their properties in order to further facilitate artisans' making and using the invention. For example, using the graphic format provided in FIG. 18, experiments confirming properties of Nile Blue were performed with the following results: […]

Nile Blue Boronate: the “fluorescent intensity increase at 671 nm” value in series [1] (glucose 150 mg/dL) is 7.5%; in series [1] (glucose 300 mg/dL), 14.3%; in series [1] (glucose 450 mg/dL), 18.8%. Besides, in series [1] (in water), the glucose transduction entry is given as “transduces glucose exceptionally well”. The entries for the “increase in fluorescent intensity at 671 nm” value in series [1] (glucose 150 mg/dL (first addition)), in series [1] (glucose 300 mg/dL (second addition)) and in series [1] (glucose 450 mg/dL (third addition)) were 23.4%, 37.8% and 47.4%, respectively. The excitation wavelength entry in series [2] was “about 625 nm”. Further, the maximum emission wavelength is recorded as 671 nm in series [2] (listed as 1), “about 675 nm” in series [2] (listed as Nile Blue biosensor molecule) and “about 675 nm” in series [2] (listed as Nile blue-based biosensor molecule).

`CC[N+](CC)=c1ccc2nc3c(cc(N)c4ccccc43)oc-2c1` [Nile Blue, Nile Blue A, reference compound]: in series [1] (DMSO/PBS solutions, same conditions as the boronate), the “glucose transduction (control experiment)” value was “incapable of transducing glucose”. Further, the solubility in water entry in “Water solubility” was “highly soluble in water”.

Consider Nile Blue A, for which the relative fluorescent intensity was found to be 1.0 in series [3] (glucose 0 mg/dl); 1.085 in series [3] (glucose 150 mg/dl); 1.239 in series [3] (glucose 300 mg/dl); 1.398 in series [3] (glucose 450 mg/dl); 1.513 in series [3] (glucose 1000 mg/dl).
